We go through 6 molecules from patent publication US20260193228A1, “TRIAZINONE DERIVATIVES AS NLRP3 INHIBITORS” (Hoffmann-La Roche Inc., priority 2022, published 2026).

Type in all cases: cell-based
The target of data set [1] is T1, NLRP3 (Homo sapiens, UniProt Q96P20). Put plainly: THP-1 cells pyroptosis assay. Also on record: Seed THP-1 cells (25,000 cells/well) containing 1.0 μg/ml LPS; host or cells: THP-1 cells. Particulars: 1.0 μg/ml LPS, nigericin 5 μM, resazurin readout. The method, then:
THP-1 cells (ATCC #TIB-202) were grown in RPMI containing L-glutamine (Gibco #11835) supplemented with 1 mM sodium pyruvate (Sigma #S8636) and penicillin (100 units/ml)/streptomycin (0.1 mg/ml) (Sigma #P4333) in 10% Fetal Bovine Serum (FBS) (Sigma #F0804). The cells were routinely passaged and grown to confluency (~10^6 cells/ml). On the day of the experiment, THP-1 cells were harvested and resuspended into RPMI medium (without FBS). The cells were then counted and viability (>90%) checked by Trypan blue (Sigma #T8154). Appropriate dilutions were made to give a concentration of 625,000 cells/ml. To this diluted cell solution was added LPS (Sigma #L4524) to give a […] Final Assay Concentration (FAC). 40 μl of the final preparation was aliquoted into each well of a 96-well plate. The plate thus prepared was used for compound screening.
The following method step-by-step assay was followed for compound screening. • 1. Seed THP-1 cells (25,000 cells/well) containing 1.0 μg/ml LPS in 40 μl of RPMI medium (without FBS) in 96-well, black walled, clear bottom cell culture plates coated with poly-D-lysine (VWR #734-0317) • 2. Add 5 μl compound (8 points half-log dilution, with 10 μM top dose) or vehicle (DMSO 0.1% FAC) to the appropriate wells • 3. Incubate for 3 hours at 37° C., 5% CO2 • 4. Add 5 μl nigericin (Sigma #N7143) (FAC 5 μM) to all wells • 5. Incubate for 1 hr at 37° C., 5% CO2 • 6. At the end of the incubation period, spin plates at 300×g for 3 mins and remove supernatant • 7. Then add 50 μl of resazurin (Sigma #R7017) (FAC 100 μM resazurin in RPMI medium without FBS) and incubate plates for a further 1-2 hours at 37° C. and 5% CO2 • 8. Plates were read in an Envision reader at Ex 560 nm and Em 590 nm • 9. IC50 data is fitted to a non-linear regression equation (log inhibitor vs response-variable slope 4-parameters)

The target of data set [2] is T1, NLRP3. Nature of the data set: Human whole blood IL-1β release assay. The conditions noted are these: 1 μg/ml LPS, nigericin 10 μM, IL-1β AlphaLisa. The procedure: For systemic delivery, the ability to inhibit NLRP3 when the compounds are present within the bloodstream is of great importance. For this reason, the NLRP3 inhibitory activity of a number of compounds in human whole blood was investigated in accordance with the following protocol.
Human whole blood in Li-heparin tubes was obtained from healthy donors from a volunteer donor panel. • 1. Plate out 80 μl of whole blood containing 1 μg/ml of LPS in 96-well, clear bottom cell culture plate (Corning #3585) • 2. Add 10 μl compound (8 points half-log dilution with 10 μM top dose) or vehicle (DMSO 0.1% FAC) to the appropriate wells • 3. Incubate for 3 hours at 37° C., 5% CO2 • 4. Add 10 μl nigericin (Sigma #N7143) (10 μM FAC) to all wells • 5. Incubate for 1 hr at 37° C., 5% CO2 • 6. At the end of the incubation period, spin plates at 300×g for 5 mins to pellet cells and remove 20 μl of supernatant and add to 96-well v-bottom plates for IL-1β analysis (note: these plates containing the supernatants can be stored at −80° C. to be analysed at a later date) • 7. IL-1β was measured according to the manufacturer protocol (Perkin Elmer-AlphaLisa IL-1 Kit AL220F-5000) • 8. IC50 data is fitted to a non-linear regression equation (log inhibitor vs response-variable slope 4-parameters)

The target in data set [3] is T2, hERG cardiac potassium channel (Homo sapiens, UniProt Q12809).
T2 construct: host or cells: CHO crelox hERG cell line (Chinese hamster)
Put plainly: hERG screening assay (automated patch clamp, CHO crelox hERG cells). The conditions noted are these: CHO crelox hERG cells (CHO cells that express hERG), whole-cell patch clamp, 35-37° C. An excerpt:
In the drug development process of small molecules, one of the most frequent adverse side effects, leading to the failure of drugs, is the cardiac arrhythmias. Such failure is often related to the capacity of the drug to inhibit the human ether-a-go-go-related gene (hERG) cardiac potassium channel. Having no or low inhibition of the hERG cardiac potassium channel is therefore considered as beneficial.
The CHO crelox hERG cell line (ATCC reference Nr. PTA-6812, female Chinese hamster cells) was generated and validated at Roche. Ready-to-use frozen instant CHO-hERG cells were cryopreserved at Evotec (Germany) and used directly in the experiments.
The extracellular solution contains (in mM): NaCl 150; KCl 4; CaCl2 1; MgCl2 1; HEPES 10; pH 7.2-7.4 with NaOH, osmolarity 290-330 mOsm. […]
The effects of a compound on hERG K+-currents parameters will be evaluated at 2 concentrations in at least 4 cells.
The hERG test is performed using automated patch clamp system SynchroPatch® 384 (Nanion Technologies GmbH, Germany). K+ currents are measured with the patch-voltage-clamp technique in the whole-cell configuration at 35-37° C. […]
The amplitudes of IKhERG were recorded in each concentration of drug and they were compared to the vehicle control values (taken as 100%) to define fractional blocks. […]

pIC50: −log10 of the molar value.

T1 sequence (Q96P20 whole entry): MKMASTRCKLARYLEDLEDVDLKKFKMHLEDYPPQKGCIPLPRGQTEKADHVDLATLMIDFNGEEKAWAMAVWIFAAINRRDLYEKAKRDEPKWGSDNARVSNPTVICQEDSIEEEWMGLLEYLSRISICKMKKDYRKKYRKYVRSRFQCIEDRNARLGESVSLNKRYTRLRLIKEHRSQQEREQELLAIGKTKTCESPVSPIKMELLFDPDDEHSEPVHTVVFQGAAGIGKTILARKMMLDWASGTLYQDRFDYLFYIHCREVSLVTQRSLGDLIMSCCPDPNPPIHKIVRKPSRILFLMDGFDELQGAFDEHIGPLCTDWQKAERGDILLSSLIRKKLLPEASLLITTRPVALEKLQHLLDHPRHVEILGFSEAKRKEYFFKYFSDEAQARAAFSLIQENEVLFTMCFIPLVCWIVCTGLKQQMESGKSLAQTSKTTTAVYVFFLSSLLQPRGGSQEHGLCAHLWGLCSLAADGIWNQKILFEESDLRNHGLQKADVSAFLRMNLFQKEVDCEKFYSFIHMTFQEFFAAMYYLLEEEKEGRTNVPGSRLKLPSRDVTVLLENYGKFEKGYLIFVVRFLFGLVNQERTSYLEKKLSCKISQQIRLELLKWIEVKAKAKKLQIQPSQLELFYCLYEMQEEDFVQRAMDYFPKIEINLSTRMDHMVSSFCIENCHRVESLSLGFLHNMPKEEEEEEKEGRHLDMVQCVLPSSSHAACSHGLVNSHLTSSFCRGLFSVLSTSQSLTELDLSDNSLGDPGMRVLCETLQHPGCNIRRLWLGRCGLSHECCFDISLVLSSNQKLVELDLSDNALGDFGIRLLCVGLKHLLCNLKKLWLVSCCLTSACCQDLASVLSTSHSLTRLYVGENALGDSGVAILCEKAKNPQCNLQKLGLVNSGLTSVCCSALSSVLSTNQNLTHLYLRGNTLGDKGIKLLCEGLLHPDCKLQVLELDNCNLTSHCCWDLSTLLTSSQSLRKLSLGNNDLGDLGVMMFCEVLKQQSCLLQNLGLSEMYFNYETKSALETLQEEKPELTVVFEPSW
T2 sequence (Q12809 whole entry): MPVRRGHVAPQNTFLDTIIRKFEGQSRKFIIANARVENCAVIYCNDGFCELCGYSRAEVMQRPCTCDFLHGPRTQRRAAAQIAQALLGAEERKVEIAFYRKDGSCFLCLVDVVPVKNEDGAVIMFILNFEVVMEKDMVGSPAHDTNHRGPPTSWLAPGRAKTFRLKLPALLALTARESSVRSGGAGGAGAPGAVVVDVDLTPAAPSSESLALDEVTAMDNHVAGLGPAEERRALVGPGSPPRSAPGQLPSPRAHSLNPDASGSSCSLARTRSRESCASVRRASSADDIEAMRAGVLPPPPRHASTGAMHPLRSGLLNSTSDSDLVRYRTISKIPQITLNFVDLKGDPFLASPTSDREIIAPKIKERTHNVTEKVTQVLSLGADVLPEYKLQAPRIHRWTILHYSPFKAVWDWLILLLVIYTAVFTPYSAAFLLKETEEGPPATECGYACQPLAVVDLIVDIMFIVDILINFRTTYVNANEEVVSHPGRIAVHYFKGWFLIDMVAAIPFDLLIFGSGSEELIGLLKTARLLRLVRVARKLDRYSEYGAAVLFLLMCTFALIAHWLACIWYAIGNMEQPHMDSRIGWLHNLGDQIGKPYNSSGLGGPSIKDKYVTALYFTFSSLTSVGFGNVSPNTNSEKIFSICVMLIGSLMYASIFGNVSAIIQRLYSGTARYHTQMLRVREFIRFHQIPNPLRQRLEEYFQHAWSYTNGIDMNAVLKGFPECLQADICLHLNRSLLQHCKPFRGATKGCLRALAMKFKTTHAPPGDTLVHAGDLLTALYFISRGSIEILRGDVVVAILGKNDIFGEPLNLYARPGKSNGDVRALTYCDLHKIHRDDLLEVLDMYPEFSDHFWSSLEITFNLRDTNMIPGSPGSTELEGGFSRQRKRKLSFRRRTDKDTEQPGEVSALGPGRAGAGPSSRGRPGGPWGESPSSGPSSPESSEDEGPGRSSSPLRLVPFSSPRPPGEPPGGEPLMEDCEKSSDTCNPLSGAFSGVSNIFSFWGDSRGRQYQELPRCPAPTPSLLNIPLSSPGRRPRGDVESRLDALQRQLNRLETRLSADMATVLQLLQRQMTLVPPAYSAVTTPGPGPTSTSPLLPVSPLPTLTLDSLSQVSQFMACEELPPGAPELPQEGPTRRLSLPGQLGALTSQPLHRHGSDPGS

For the molecule `CCN1CCC[C@@H](Nc2nnc(-c3ccc(C(F)(F)F)cc3O)c(=O)n2C)C1` [Example 1, 3-[[(3R)-1-Ethyl-3-piperidyl]amino]-6-[2-hydroxy-4-(trifluoromethyl)phenyl]-4-methyl-1,2,4-triazin-5-one; Formic Acid], the negative-log IC50 (pIC50) against NLRP3 [1] is 6.21.

As to `CCN1CCC[C@@H](Nc2nnc(-c3c(C)cc(C(F)(F)F)cc3O)c(=O)n2C)C1` [Example 2, 3-[[(3R)-1-ethyl-3-piperidyl]amino]-6-[2-hydroxy-6-methyl-4-(trifluoromethyl)phenyl]-4-methyl-1,2,4-triazin-5-one], the results for the pIC50 on NLRP3 [2] and on NLRP3 [1] were 7.28 and 7.50, respectively. In addition, in data set [3], the IC20 is greater than 10000 nM.

For the molecule `CCN1CCC[C@@H](Nc2nnc(-c3c(C)cc4c(c3O)CCC4)c(=O)n2C)C1` [Example 3, 3-[[(3R)-1-Ethyl-3-piperidyl]amino]-6-(4-hydroxy-6-methyl-indan-5-yl)-4-methyl-1,2,4-triazin-5-one], the pIC50 at NLRP3 [2] was 7.39; against NLRP3 [1] it was 7.77. Also, the IC20 in data set [3] was greater than 10000 nM.

In turn, `Cc1cc2c(c(O)c1-c1nnc(N[C@@H]3CCCN(CCO)C3)n(C)c1=O)CCC2` [Example 4, 3-[[(3R)-1-(2-Hydroxyethyl)-3-piperidyl]amino]-6-(4-hydroxy-6-methyl-indan-5-yl)-4-methyl-1,2,4-triazin-5-one] had a negative logarithm of the IC50 (pIC50) against NLRP3 [1] of 6.61.

Turning to `CCN1CCC[C@@H](Nc2nnc(-c3c(C)cc4c(c3O)CCO4)c(=O)n2C)C1` [Example 5, 3-[[(3R)-1-Ethyl-3-piperidyl]amino]-6-(4-hydroxy-6-methyl-2,3-dihydrobenzofuran-5-yl)-4-methyl-1,2,4-triazin-5-one], the pIC50 was 7.48 against NLRP3 [2] and 7.41 against NLRP3 [1].

For the molecule `CCN1CCC[C@@H](Nc2nnc(-c3c(C)cc(Cl)cc3O)c(=O)n2C)C1` [Example 6, 6-(4-Chloro-2-hydroxy-6-methyl-phenyl)-3-[[(3R)-1-ethyl-3-piperidyl]amino]-4-methyl-1,2,4-triazin-5-one], the results for the pIC50 on NLRP3 [2] and on NLRP3 [1] were 7.39 and 7.48, respectively.
